Several values for one entry are separate records, joined by “and”; a condition that tells them apart may be missing. Equal entries are not always repeated. Where two headings read alike, the source gives them in different places.
Assays:
[1] = test system: Sorghum line TX430 immature embryos; settings: for Transformation frequency (%): dark
Experimental: (§1) Sorghum line TX430 immature embryos (9-15 DAP when embryo size around 0.8-2.5 mm) were infected with 1×10^9cfu/mL Agrobacterium LBA4404 containing superbinary vector PHPMYFP in PHI-I liquid medium. The embryos were co-cultivated on PHI-T medium plates at 25° C. (ranged 21-25° C.) in dark for 3 days (ranged 1-7 days).
(§2) The whole selection step was in dark at 28° C. After two to three months from the initiation of the experiment, transgenic callus events were cultured for plant regeneration on the same regeneration medium (PHI-RF and PHI-Z) at the regular regeneration conditions.
Transformation frequency was calculated by the number of embryos producing transgenic plants divided by the number of embryos infected by Agrobacterium

[2] = test system: Maize inbred PHR03 immature embryos; settings: for Transformation frequency (%): dark
Experimental: (§3) Maize inbred PHR03 immature embryos (9-13 DAP when embryo size around 0.8-2.5 mm) were infected with 5×10^8 cfu/mL Agrobacterium LBA4404 containing superbinary vector PHPMRFP in PHI-I liquid medium. The embryos were then co-cultivated on PHI-T co-cultivation media plates at 21° C. in dark conditions for 3 days. This may range from 1-7 days.
(§4) The embryos were subcultured every 2-3 weeks.
(§5) A regeneration step is followed by culturing the putative transgenic callus on PHI-RF medium plates for producing shoots and a rooting step on medium plates PHI-RR.
Transformation frequency was calculated by the number of embryos producing transgenic callus capable of regenerating plants divided by the number of embryos infected by Agrobacterium.

[3] = test system: Sorghum line TX430 immature embryos; settings: for Transformation frequency (%): dark; remark: listed apart in the source
Experimental: as §1, §2
Transformation frequency was calculated by the number of embryos producing transgenic callus capable of regeneration divided by the number of embryos infected by Agrobacterium

[4] = test system: Sorghum line TX430 immature embryos
Experimental: as §1
The whole selection step was in dark or dim light at 28° C. After two to three months from the initiation of the experiment, transgenic callus events were cultured for plant regeneration on the same regeneration medium (PHI-RF and PHI-Z) at the regular regeneration conditions.
(§6) Transformation frequency was calculated by the number of embryos producing transgenic plants divided by the number of embryos infected by Agrobacterium.

[5] = test system: Maize inbred PHR03 immature embryos; assay: Transformation frequency of maize using various light intensities (Example 18); type: cell-based; settings: 4 μM copper in DBC3 resting and selection media
Experimental: as §3, §4
A regeneration step was followed by culturing the putative transgenic callus on PHI-RF medium plates for producing shoots and a rooting step on medium plates PHI-RR.
as §6

[6] = test system: Maize inbred PHR03 immature embryos; settings: for Transformation frequency (%): dark; remark: listed apart in the source
Experimental: as §3, §4, §5, §6

[7] = 0.1 μM copper (negative control) in DBC3 resting and selection media, Average of exp 1-4
[8] = 0.1 μM copper (negative control) in DBC3 resting and selection media, single experiments exp 1-4
[9] = 5 μM copper in DBC3 resting and selection media, Average of exp 1-4

O=S(=O)([O-])[O-].[Cu+2] [copper, cupric sulfate]
Transformation frequency (%) [1, 7]: 2.0% | Transformation frequency (%) [1, 8]: 3.33% and 2.50% and 0.00% | increase of transformation frequency over 0.1 μM copper ([1]; 5 μM copper and above, sorghum): 4-6 times | Transformation frequency (%) [1, 9]: 13.8% | Transformation frequency (%) ([1]; 5 μM copper in DBC3 resting and selection media, single experiments exp 1-4): 16.67% and 15.00% and 8.33% | Transformation frequency (%) ([1]; 10 μM copper in DBC3 resting and selection media, Average): 13.0% | Transformation frequency (%) ([1]; 10 μM copper in DBC3 resting and selection media, single experiments exp 1-4): 20.00% and 10.00% and 12.50% | Transformation frequency (%) ([1]; 30 μM copper in DBC3 resting and selection media, Average of exp 1-4): 8.2% | Transformation frequency (%) ([1]; 50 μM copper in DBC3 resting and selection media, Average of exp 1-4): 9.6% | Transformation frequency (%) ([1]; 50 μM copper in DBC3 resting and selection media, single experiments exp 1-4): 5.00% and 10.00% and 11.11% | Transformation frequency (%) [2, 7]: 4.4% | Transformation frequency (%) [2, 8]: 2.5% and 5.0% and 7.5% | increase of transformation frequency over 0.1 μM copper ([2]; 1 μM copper and above, maize): 3-5 times | Transformation frequency (%) ([2]; 1 μM copper in DBC3 resting and selection media, Average of exp 1-4): 16.9% | Transformation frequency (%) ([2]; 1 μM copper in DBC3 resting and selection media, single experiments exp 1-4): 15% and 17.5% and 20% | Transformation frequency (%) ([2]; 4 μM copper in DBC3 resting and selection media, Average of exp 1-4): 11.9% | Transformation frequency (%) [2, 9]: 23.1% | Transformation frequency (%) ([3]; 0.1 μM copper in DBC3 resting and selection media, Average of exp 1-2): 10.0% | Transformation frequency (%) ([3]; 0.1 μM copper in DBC3 resting and selection media, single experiments exp 1-2): 15.0% and 5.0% | increase of transformation frequency over 0.1 μM copper ([3]; 1 μM copper and above, sorghum): two times | Transformation frequency (%) ([3]; 1 μM copper in DBC3 resting and selection media, Average of exp 1-2): 23.8% | Transformation frequency (%) ([3]; 1 μM copper in DBC3 resting and selection media, single experiments exp 1-2): 30.0% and 17.5% | Transformation frequency (%) ([3]; 4 μM copper in DBC3 resting and selection media, Average of exp 1-2): 17.1% | Transformation frequency (%) ([3]; 5 μM copper in DBC3 resting and selection media, Average of exp 1-2): 26.3% | Transformation frequency (%) ([3]; 5 μM copper in DBC3 resting and selection media, single experiments exp 1-2): 27.5% and 25.0% | Transformation frequency (%) ([4]; 4 μM copper in DBC3 resting and selection media, Dim light, Average of exp 1-2): 31.3% | Transformation frequency (%) ([4]; 4 μM copper in DBC3 resting and selection media, dark, Average of exp 1-2): 17.1% | Transformation frequency (%) ([4]; 5 μM copper in DBC3 resting and selection media, Dim light, Average of exp 1-2): 20.0% | Transformation frequency (%) ([4]; 5 μM copper in DBC3 resting and selection media, dark, Average of exp 1-2): 26.3% | Transformation frequency (%) ([4]; 5 μM copper in DBC3 resting and selection media, dark, single experiments exp 1-2): 27.5% and 25.0% | Transformation frequency (%) ([5]; Dark, single experiments exp 1-4): 10% and 17.5% and 12.5% and 7.5% | Transformation frequency (%) ([5]; Dim light, Average of exp 1-4): 17.5% | Transformation frequency (%) ([5]; dark, Average of exp 1-4): 11.9% | Transformation frequency (%) ([6]; 0.1 μM copper (negative control) in DBC3 resting and selection media, Average of exp 1-5): 2.9% | Transformation frequency (%) ([6]; 0.1 μM copper (negative control) in DBC3 resting and selection media, single experiments exp 1-5): 5.0% and 0.0% and 10.0% | increase of transformation frequency over 0.1 μM copper ([6]; 5 μM copper and above, maize): 4-7 times | Transformation frequency (%) ([6]; 5 μM copper in DBC3 resting and selection media, Average of exp 1-5): 23.5% | Transformation frequency (%) ([6]; 10 μM copper in DBC3 resting and selection media, Average of exp 1-5): 19.0% | Transformation frequency (%) ([6]; 30 μM copper in DBC3 resting and selection media, Average of exp 1-5): 14.0% | Transformation frequency (%) ([6]; 50 μM copper in DBC3 resting and selection media, Average of exp 1-5): 21.0%

Reference: patent publication US8404930B2, “Methods for improving monocot transformation” (Pioneer Hi-Bred International, Inc., priority 2009, dated 2013)
